US20190112208A1, “COMPOSITIONS EXHIBITING SYNERGY IN BIOFILM CONTROL” (SOLENIS TECHNOLOGIES, L.P., priority 2017, published 2019)
Like-named read-outs stand apart in the source and are kept apart here.

Tested on: Pseudomonas putida biofilms
Type: cell-based
Protocol: In this work the efficacy of the agents alone and in combination were determined by measuring the number of viable cells in model biofilms remaining after treatment. The Minimum Biofilm Eradication value (MBEC) is defined as a 95% reduction in the number of viable cells compared to the untreated control. The relatively non-toxic dispersants are unable to reach that level of killing with physically possible concentrations, thus for those agents the MBEC is considered the highest value tested. Since this value is used as the divisor in the synergy index equation this highest tested value is actually an underestimate of the MBEC and thus synergy index values are also […].
Dose response studies were performed to determine the Minimum Biofilm Eradication Concentration (MBEC) for monochloramine and SDBS alone. The MBEC is defined as the concentration of agent that reduces the viable biofilm population by 95% of the untreated control value as measured by viable plate counts. Experiments were then performed to determine the result of combining the two agents, oxidizing biocide monochloramine and dispersant SDBS, on biofilm populations. The experiments examined three concentrations of monochloramine with four concentrations of SDBS. The SDBA used in the examples was Bio-Soft™ D-4 (Stepan Company, Northfield, Ill.).
M9YG media is a simple minimal salt medium supplemented with 500 mg/L glucose and 0.01% yeast extract. The salts composition is intended to mimic a typical cooling tower water composition. The composition of the media is made using the following procedure: 5XM9 salt composition is mixed using 64 gm Na2HPO4.7H2O, 15 grams KH2PO4, 2.5 gm NaCl and 5 grams NH4Cl in one liter of water. This is divided into 200 ml aliquots and sterilized (by autoclave). To 750 ml of sterile deionized water is added the sterile supplement solutions while stirring. A white precipitate will appear on addition of the CaCl2 but will dissolve with stirring. Supplement solution is 200 ml of 5XM9 composition, 2 ml of 1M MgSO4, 0.1 ml of 1M CaCl2, 20 ml of 20% glucose, 1 ml of 10% yeast extract, and enough water to make 1000 ml of solution. […]
Biofilms were grown on stainless steel 316 coupons in a CDC Biofilm reactor using M9YG minimal salts growth media for a period of twenty-four hours. […] Viable cells released into the fluid were then determined by a plating method.
Synergy indices were calculated as described in Kull et al. as in example 1.
Dose response studies were performed to determine the Minimum Biofilm Eradication Concentration (MBEC) for monochloramine/dichloramine blend (MCA/DCA) and SDBS alone. The MBEC is defined as the concentration of agent that reduces the viable biofilm population by 95% of the untreated control value as measured by viable plate counts. […]

| Compound | % Biofilm reduction (Example 1, 20 mg/L MCA alone) [%] | % Biofilm reduction (Example 1, 20 mg/L MCA alone, listed as monochloramine) | % Biofilm reduction (Example 1, 312 mg/L SDBS alone) [%] | % Biofilm reduction (Example 2, 312 mg/L SDBS alone) [%] |
| --- | --- | --- | --- | --- |
| NCl [MCA, monochloramine] | 93.58 | greater than 90% |  |  |
| Sodium dodecylbenzenesulfonates [SDBS] |  |  | 48.62 | 84.58 |
